Legend:
[1] = system: SH-SY5Y human neuroblastoma cell line; experiment: Cytotoxicity, Calcein AM viability assay on neuron-like SH-SY5Y cells; format: cell-based; settings: 24 h
Experimental: The SH-SY5Y human neuroblastoma cell line obtained from ECACC (The European Collection of Authenticated Cell Cultures) was cultivated in Dulbecco's modified Eagle's Medium and Ham's F12 Nutrient Mixture (DMEM:F-12, 1:1), supplemented with 10% fetal bovine serum (FBS) and 1% penicillin and streptomycin at 37° C. in a humidified atmosphere 5% CO2, 95% humidity in passage limit up to ECACC+20. The assay was performed in 96-well microplate with 7000 SH-SY5Y cells per well. After 48 h, old DMEM/F12 media was removed by fresh media containing tested compounds at 0.1, 1 and 10 μM concentrations for 24 h. Glial cell line A-172 purchased from ATCC and grown in same conditions as SH-SY5Y cell line. A-172 cells were seeded in density 2000 cells per well and growing medium was replaced by treatment medium containing tested compounds in 0.1, 1 and 10 μM concentration; or in higher concentrations for R-LA or NAC positive controls for 48 hours. All tested compounds dissolved in DMSO were added into the medium. The maximum concentration of DMSO in media was kept below 0.1% (v/v). The cell viability was measured by Calcein AM (1 mg/ml ThermoFisher) viability assay. Solution of Calcein AM in PBS (0.75 μM) was pipetted to cells and incubated for 50 min. After that the fluorescence was measured at 488/517 nm (excitation/emission) using microplate reader Infinite M200 (TECAN). Calcein AM assay is based on the dye-intracellular-esterase cleavage of non-fluorescent dye (Calcein AM) by living cells to fluorescent dye (Calcein), while dying cells lose such ability. The values in Table 2 show the % of viability compared to control for all tested compounds. The results from DMSO control (medium with DMSO, <0.1% (v/v)) was postulated as 100% viability (see the first line of Table 2).

glial A-172 cells [2] = experiment: Cytotoxicity, Calcein AM viability assay on glial A-172 cells; format: cell-based, human; settings: NAC at 1000 μM
Experimental: The assay was performed in 96-well microplate with 7000 SH-SY5Y cells per well. After 48 h, old DMEM/F12 media was removed by fresh media containing tested compounds at 0.1, 1 and 10 μM concentrations for 24 h. Glial cell line A-172 purchased from ATCC and grown in same conditions as SH-SY5Y cell line. […] All tested compounds dissolved in DMSO were added into the medium. The maximum concentration of DMSO in media was kept below 0.1% (v/v). The cell viability was measured by Calcein AM (1 mg/ml ThermoFisher) viability assay. Solution of Calcein AM in PBS (0.75 μM) was pipetted to cells and incubated for 50 min. After that the fluorescence was measured at 488/517 nm (excitation/emission) using microplate reader Infinite M200 (TECAN). Calcein AM assay is based on the dye-intracellular-esterase cleavage of non-fluorescent dye (Calcein AM) by living cells to fluorescent dye (Calcein), while dying cells lose such ability.

[3] = system: human neuroblastoma cell line SH-SY5Y; experiment: Viability of differentiated SH-SY5Y in salsolinol-induced model of PD (Calcein AM); format: cell-based; settings: for Neuroprotective effect (% of control): difference between 800 μM SAL and co-treatment group means, 24 hours; for effect on SH-SY5Y viability in salsolinol model, in words: 800 μM salsolinol, comparison with NAC
Experimental: Similarly, as in previous “Safety test”, the SH-SY5Y cells were seeded at density 7000 cells/well. After 48 h differentiation, old 1% DMEM/F12 media was replaced by fresh media containing 800 μM salsolinol (SAL) and tested compounds in 0.1, 1 and 10 μM concentrations. N-acetylcystein were chosen as positive control. After 24 hours, the cell viability was measured by Calcein AM viability assay. The values in Table 2 show % of viability of all tested compounds relative to control. The control (medium with DMSO, <0.1% (v/v)) was postulated as 100% viability (see the first line of the table), while the SAL exposure lead to decrease of viability to 65.4±0.97%.

caspase-3,7 activity = experiment: Caspase-3,7 activity in salsolinol-induced model of PD on SH-SY5Y (Ac-DEVD-AMC); format: cell-based, human; settings: for Caspase-3,7 activity (% of 800 μM SAL control): percentages of control (800 μM SAL = 100), 24 hour co-treatment; for reduction of caspase-3,7 activity, in words: 800 μM SAL, compounds 3 and 4 at 10 μM compared with NAC; for efficacy relative to positive controls (by used concentration): caspase-3,7 activity, salsolinol model
Experimental: Similarly, as shown in previous assay, cells grew on 96 multiwell plates at density 20000 cells per well underwent differentiation and treatment procedure for salsolinol model. After 24 hour co-treatment with salsolinol, caspase-3,7 (casp-3,7) activity as marker of apoptosis was quantified by its substrate Ac-DEVD-AMC according to Carrasco et al. (2003, BioTechniques, 34, 1064-1067). In this model, overall casp-3,7 activity induced by 800 μM SAL was consider as 100% and thus the reduction in casp-3,7 was observed after treatment with the protective terpenoid derivatives. As shown in Table 4 and FIG. 2, 800 μM SAL induced 2.9-fold increase.

[4] = system: human neuron-like SH-SY5Y cells; experiment: 3NPA-induced model of Huntington's disease, neuron-like SH-SY5Y cells; format: cell-based; settings: difference to 20 mM 3NPA, 48 h
Experimental: (§1) Before application of toxin 3-nitropropionic acid (3NPA) for mimicking Huntington's disease, the 3NPA was dissolved in water and neutralized by sodium hydroxide. SH-SY5Y cells were seeded in the same density and differentiated by the procedure shown above. Astrocyte cells A-172 were also seeded as described in previous section. Both cell lines were co-treated by 3NPA (20 mM for SH-SY5Y cells, […]) and tested compounds at 0.1, 1 and 10 μM concentration for 48 h.

astrocyte A-172 cells = experiment: 3NPA-induced model of Huntington's disease, astrocyte A-172 cells; format: cell-based, human; settings: for Astro-protective effect (% of control): difference to 10 mM 3NPA, 48 h
Experimental: as §1

[5] = system: superoxide radical formation; experiment: Oxidative stress (superoxide radical formation, DHE) in 3NPA-induced model on SH-SY5Y; format: cell-based, human; settings: for Superoxide radical formation (oxidative stress) %: 20 mM 3NPA = 100%, 24 hours
Experimental: Similarly, to previous assay, cells grown on 96-multiwell plates at density 20000 cells per well underwent differentiation and treatment procedure with 3-nitropropionic acid (3NPA) in this model. After 24 hours of co-treatment with 20 mM 3NPA, superoxide radical's formation as a marker of oxidative stress was quantified by dihydroethidium according to Kim et al. (2017, J. Med. Food, 20, 140-151). Briefly, neuron-like SH-SY5Y cells were centrifuged at 500 g for 5 min and 30 s, then media were replaced by 10 μM DHE PBS solution and kept at room temperature for 30 min. After that, DHE was read at 500 nm/580 nm (excitation/emission) by Infinite M200 Pro (Tecan) microplate reader. DHE is cell permeable dye which is selective for superoxide radical detection. Overall oxidative stress achieved by 20 mM 3NPA was consider as 100% and thus the reduction in superoxide radical's formation (OS reducing effect) was determined. As shown in Table 6 and FIG. 2, 20 mM 3NPA induced 2.7-fold increase in superoxide radical's formation.

glial A-172 cells [6] = experiment: Cytotoxicity, Calcein AM viability assay on glial A-172 cells; format: cell-based, human; settings: 48 hours

SMILES	viability, percentage of DMSO control ([1]; 0.1 μM)	viability, percentage of DMSO control ([1]; 1 μM)	viability, percentage of DMSO control ([1]; 10 μM)	effect on viability of astrocytes, in words (glial A-172 cells [2])	Neuroprotective effect (% of control) ([3]; 0.1 μM)	Neuroprotective effect (% of control) ([3]; 1 μM)	Neuroprotective effect (% of control) ([3]; 10 μM)	effect on SH-SY5Y viability in salsolinol model, in words [3]	Caspase-3,7 activity (% of 800 μM SAL control) (caspase-3,7 activity; 1 μM)	Caspase-3,7 activity (% of 800 μM SAL control) (caspase-3,7 activity; 10 μM)	reduction of caspase-3,7 activity, in words (caspase-3,7 activity)	efficacy relative to positive controls (by used concentration) (caspase-3,7 activity)	Neuro-protective effect (% of control) ([4]; 0.1 μM)	Neuro-protective effect (% of control) ([4]; 1 μM)	Neuro-protective effect (% of control) ([4]; 10 μM)	Astro-protective effect (% of control) (astrocyte A-172 cells; A-172, 0.1 μM)	Astro-protective effect (% of control) (astrocyte A-172 cells; A-172, 1 μM)	Astro-protective effect (% of control) (astrocyte A-172 cells; A-172, 10 μM)	Superoxide radical formation (oxidative stress) % ([5]; 0.1 μM)	Superoxide radical formation (oxidative stress) % ([5]; 1 μM)	also measured
C=C(C(=O)OCc1ccncc1)C1CCC2(COC(C)=O)CCC3(C)C(CCC4C5(C)CCC(OC(C)=O)C(C)(C)C5CCC43C)C12 (stereo not drawn) [Compound 3, Pyridin-4-yl-methyl 3β,28-bis(acetyloxy)lup-20(30)-en-29-oate]	115.8%	145.0%	137.4%	slight decrease in percentage of living cells	N/A (N/A = no protection)	33.10 % of control	21.50 % of control	better effect than 1000 μM NAC	73.7%	55.6%	comparable	10 fold	N/A (N/A = no protection)	39.96 % of control	24.13 % of control	N/A (N/A = no protection)	11.98 % of control	N/A (N/A = no protection)	88.4%	79.0%	protective effect on astrocytes in 3NPA model, in words (astrocyte A-172 cells; A-172 cells, comparison with R-LA): positive effect comparable to R-LA control; OS reducing effect, in words ([5]; 10 μM, comparison with 100 μM NAC): even stronger activity toward oxidative stress; Superoxide radical formation (oxidative stress) % ([5]; 10 μM): 81.9%; viability, percentage of DMSO control (glial A-172 cells [6]; 0.1 μM): 95.5%; viability, percentage of DMSO control (glial A-172 cells [6]; 1 μM): 98.2%; viability, percentage of DMSO control (glial A-172 cells [6]; 10 μM): 71.7%
C=C(C(=O)OCc1cccnc1)C1CCC2(COC(C)=O)CCC3(C)C(CCC4C5(C)CCC(OC(C)=O)C(C)(C)C5CCC43C)C12 (stereo not drawn) [Compound 4, Pyridin-3-yl-methyl (3β)-3,28-bis(acetyloxy)lup-20(30)-en-29-oate]	99.9%	146.1%	142.5%	slight decrease in percentage of living cells	N/A (N/A = no protection)	33.70 % of control	33.99 % of control	better effect than 1000 μM NAC	67.2%	46.0%	better	10 fold	N/A (N/A = no protection)	32.36 % of control	28.98 % of control	7.38 % of control	3.25 % of control	N/A (N/A = no protection)	84.7%	78.5%	Superoxide radical formation (oxidative stress) % ([5]; 10 μM): 65.8%; viability, percentage of DMSO control (glial A-172 cells [6]; 0.1 μM): 104.2%; viability, percentage of DMSO control (glial A-172 cells [6]; 1 μM): 97.9%; viability, percentage of DMSO control (glial A-172 cells [6]; 10 μM): 83.6%
